Earlier results on one compound are cited in paper PMC4084622 (Journal of Medicinal Chemistry, 2014).

For the data set, the system named is M. tuberculosis. The following applies: M. tuberculosis H37Rv, Erdman, and drug-resistant strains; cited from earlier work.

Turning to `CC(C)=CCC/C(C)=C/CNCCNC1C2CC3CC(C2)CC1C3` (stereo not shown) [compound 1, SQ109], the “minimum inhibitory concentration (MIC)” value was 0.7 to 1.56 µM.
